Measurements as given in the NIST ThermoML archive (doi:10.1021/acs.jced.8b00132).
“And” between values parts separate entries of the source, which are not always exact repeats. Equal entries are not always repeated.

Conditions: Gas

O=C(C(F)(F)C(F)(F)F)C(F)(C(F)(F)F)C(F)(F)F [dodecafluoro-2-methylpentan-3-one]
Conditions | thermal conductivity
499.7 K, 3616 kPa, transient hot wire | 0.03337 W/m/K
499.7 K, 4324 kPa, transient hot wire | 0.03528 W/m/K
499.7 K, 5590 kPa, transient hot wire | 0.03721 W/m/K
499.7 K, 35697 kPa, transient hot wire | 0.05683 W/m/K
499.7 K, 50253 kPa, transient hot wire | 0.06228 W/m/K
499.7 K, 50292 kPa, transient hot wire | 0.06274 W/m/K
499.71 K, 3616 kPa, transient hot wire | 0.03339 W/m/K
499.71 K, 25604 kPa, transient hot wire | 0.05236 W/m/K
499.72 K, 3288 kPa, transient hot wire | 0.03208 W/m/K
499.72 K, 4324 kPa, transient hot wire | 0.03516 W/m/K
499.72 K, 18413 kPa, transient hot wire | 0.04809 W/m/K
499.73 K, 643 kPa, hot wire | 0.02734 W/m/K and 0.02744 W/m/K
499.73 K, 4855 kPa, transient hot wire | 0.03606 W/m/K and 0.03623 W/m/K
499.73 K, 18416 kPa, transient hot wire | 0.04833 W/m/K
499.73 K, 35665 kPa, transient hot wire | 0.05687 W/m/K
499.74 K, 3288 kPa, transient hot wire | 0.03222 W/m/K
499.74 K, 3937 kPa, transient hot wire | 0.03429 W/m/K
499.74 K, 50254 kPa, transient hot wire | 0.06235 W/m/K
499.75 K, 418 kPa, hot wire | 0.02717 W/m/K
499.75 K, 2128 kPa, transient hot wire | 0.02829 W/m/K
499.75 K, 35673 kPa, transient hot wire | 0.05679 W/m/K
499.75 K, 35689 kPa, transient hot wire | 0.05686 W/m/K
499.75 K, 50278 kPa, transient hot wire | 0.06281 W/m/K
499.76 K, 417 kPa, hot wire | 0.02687 W/m/K
499.76 K, 1595 kPa, transient hot wire | 0.02727 W/m/K
499.76 K, 5594 kPa, transient hot wire | 0.03739 W/m/K
499.76 K, 25601 kPa, transient hot wire | 0.05218 W/m/K
499.76 K, 25602 kPa, transient hot wire | 0.05226 W/m/K
499.76 K, 50255 kPa, transient hot wire | 0.06232 W/m/K
499.77 K, 1595 kPa, transient hot wire | 0.0273 W/m/K
499.77 K, 4324 kPa, transient hot wire | 0.03524 W/m/K
499.78 K, 5592 kPa, transient hot wire | 0.03734 W/m/K
499.79 K, 60 kPa, hot wire | 0.02624 W/m/K
499.79 K, 218 kPa, hot wire | 0.02627 W/m/K
499.79 K, 2953 kPa, transient hot wire | 0.03092 W/m/K
499.79 K, 3618 kPa, transient hot wire | 0.03355 W/m/K
499.79 K, 4324 kPa, transient hot wire | 0.03534 W/m/K
499.79 K, 35664 kPa, transient hot wire | 0.05692 W/m/K
499.79 K, 50251 kPa, transient hot wire | 0.06211 W/m/K
499.8 K, 60 kPa, hot wire | 0.02618 W/m/K
499.8 K, 217 kPa, hot wire | 0.02613 W/m/K
499.8 K, 869 kPa, transient hot wire | 0.02693 W/m/K and 0.02695 W/m/K
499.8 K, 2952 kPa, transient hot wire | 0.03103 W/m/K
499.8 K, 3936 kPa, transient hot wire | 0.03437 W/m/K
499.8 K, 4855 kPa, transient hot wire | 0.03629 W/m/K
499.81 K, 2569 kPa, transient hot wire | 0.0294 W/m/K
499.81 K, 3287 kPa, transient hot wire | 0.0325 W/m/K and 0.03233 W/m/K
499.81 K, 3936 kPa, transient hot wire | 0.03445 W/m/K
499.81 K, 35680 kPa, transient hot wire | 0.05678 W/m/K
499.81 K, 35689 kPa, transient hot wire | 0.05675 W/m/K
499.81 K, 50253 kPa, transient hot wire | 0.06239 W/m/K
499.82 K, 2568 kPa, transient hot wire | 0.02959 W/m/K
499.82 K, 35681 kPa, transient hot wire | 0.05686 W/m/K
499.83 K, 646 kPa, transient hot wire | 0.02724 W/m/K
499.83 K, 647 kPa, transient hot wire | 0.02739 W/m/K
499.83 K, 13400 kPa, transient hot wire | 0.04508 W/m/K
499.84 K, 5595 kPa, transient hot wire | 0.03734 W/m/K
499.84 K, 13403 kPa, transient hot wire | 0.04494 W/m/K
499.84 K, 18418 kPa, transient hot wire | 0.04825 W/m/K
499.85 K, 3618 kPa, transient hot wire | 0.0337 W/m/K
499.85 K, 4324 kPa, transient hot wire | 0.03554 W/m/K
499.85 K, 25604 kPa, transient hot wire | 0.05216 W/m/K
499.85 K, 35654 kPa, transient hot wire | 0.05672 W/m/K
499.86 K, 4325 kPa, transient hot wire | 0.03565 W/m/K
499.87 K, 5595 kPa, transient hot wire | 0.03732 W/m/K
499.87 K, 35670 kPa, transient hot wire | 0.05702 W/m/K
499.88 K, 1594 kPa, transient hot wire | 0.02746 W/m/K
499.88 K, 1595 kPa, transient hot wire | 0.02725 W/m/K
499.88 K, 2128 kPa, transient hot wire | 0.02824 W/m/K
499.88 K, 2952 kPa, transient hot wire | 0.03099 W/m/K
499.88 K, 3619 kPa, transient hot wire | 0.03371 W/m/K
499.88 K, 3936 kPa, transient hot wire | 0.03462 W/m/K
499.89 K, 422 kPa, transient hot wire | 0.02757 W/m/K
499.89 K, 2128 kPa, transient hot wire | 0.02826 W/m/K
499.89 K, 2952 kPa, transient hot wire | 0.03116 W/m/K
499.89 K, 3936 kPa, transient hot wire | 0.03474 W/m/K
499.89 K, 35669 kPa, transient hot wire | 0.05673 W/m/K
499.9 K, 421 kPa, transient hot wire | 0.02748 W/m/K
499.91 K, 2567 kPa, transient hot wire | 0.02946 W/m/K
499.91 K, 3287 kPa, transient hot wire | 0.03278 W/m/K
499.91 K, 10172 kPa, transient hot wire | 0.0425 W/m/K
499.91 K, 25600 kPa, transient hot wire | 0.05221 W/m/K
499.92 K, 6555 kPa, transient hot wire | 0.03863 W/m/K
499.92 K, 10173 kPa, transient hot wire | 0.0424 W/m/K
